{"source": "patent US20260364079A1", "about": "(Principia Biopharma Inc., priority 2022, published 2026)", "key": {"[1]": {"molecular_target": "BTK (Homo sapiens, UniProt Q06187)", "sequence (Q06187 whole entry)": "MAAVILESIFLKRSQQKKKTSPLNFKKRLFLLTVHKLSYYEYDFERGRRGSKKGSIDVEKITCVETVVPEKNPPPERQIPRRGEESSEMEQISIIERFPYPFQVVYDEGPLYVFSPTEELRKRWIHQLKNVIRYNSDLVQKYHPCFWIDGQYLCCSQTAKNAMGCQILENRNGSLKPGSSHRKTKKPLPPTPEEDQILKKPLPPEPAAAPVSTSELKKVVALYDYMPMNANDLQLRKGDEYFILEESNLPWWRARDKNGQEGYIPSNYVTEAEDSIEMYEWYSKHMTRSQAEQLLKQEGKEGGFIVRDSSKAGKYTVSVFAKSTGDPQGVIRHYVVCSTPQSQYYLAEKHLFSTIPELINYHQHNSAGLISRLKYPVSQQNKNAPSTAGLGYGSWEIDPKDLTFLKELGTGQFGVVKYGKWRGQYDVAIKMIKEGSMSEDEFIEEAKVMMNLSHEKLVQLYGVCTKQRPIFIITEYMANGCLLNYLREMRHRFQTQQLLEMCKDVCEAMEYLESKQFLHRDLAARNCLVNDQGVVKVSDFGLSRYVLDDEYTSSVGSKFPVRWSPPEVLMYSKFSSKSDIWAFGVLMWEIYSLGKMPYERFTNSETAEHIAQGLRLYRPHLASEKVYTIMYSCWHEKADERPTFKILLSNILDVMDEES", "settings": "healthy volunteers, cited from earlier work"}, "[2]": {"settings": "Phase 2 trial; cited from earlier work"}, "[3]": {"settings": "in vivo; cited from earlier work"}, "[4]": {"settings": "patients with chronic lymphatic leukemia; cited from earlier work"}, "[5]": {"test_system": "251 kinases", "assay": "broad kinase enzyme inhibition panel", "format": "biochemical", "settings": "1 μM"}}}
{"smiles": "C=CC(=O)Nc1cccc(Nc2nc(Nc3ccc(OCCOC)cc3)ncc2F)c1", "note": "[CC-292]", "values": [{"measurement": "tolerability", "setting": "[1]; doses with 100% occupancy", "result": "well tolerated"}, {"measurement": "occupancy of the BTK enzyme", "setting": "[1]", "result": 100, "unit": "%"}]}
{"smiles": "C=CC(=O)N1CCC(CNc2ncnc(N)c2-c2ccc(Oc3ccccc3)cc2)CC1", "note": "[evobrutinib]", "values": [{"measurement": "efficacy in multiple sclerosis", "setting": "[2]", "result": "demonstrated efficacy for multiple sclerosis"}]}
{"smiles": "C=CC(=O)N1CCC[C@@H](n2nc(-c3ccc(Oc4ccccc4)cc3)c3c(N)ncnc32)C1", "note": "[ibrutinib]", "values": [{"measurement": "activity in other hematological malignancies", "setting": "[3]", "result": "demonstrated activity in other hematological malignancies"}, {"measurement": "sequential episodes of severe autoimmune hemolytic anemia and ITP", "setting": "[4]", "result": "ceased after initiation of treatment with ibrutinib"}, {"measurement": "number of kinases inhibited", "setting": "[5]", "result": 21, "unit": "kinases"}]}
